Measured values: BindingDB's records for doi:10.1074/jbc.M607293200 (The Scripps Research Institute, 2007)
pKi: −log10 of the molar value.

target: T1, Phosphoribosylglycinamide formyltransferase (Escherichia coli (strain K12), UniProt P08179); assay: GAR Tfase Activity Assay; conditions: pH 7.5; 26 °C
T1 sequence (P08179 whole entry): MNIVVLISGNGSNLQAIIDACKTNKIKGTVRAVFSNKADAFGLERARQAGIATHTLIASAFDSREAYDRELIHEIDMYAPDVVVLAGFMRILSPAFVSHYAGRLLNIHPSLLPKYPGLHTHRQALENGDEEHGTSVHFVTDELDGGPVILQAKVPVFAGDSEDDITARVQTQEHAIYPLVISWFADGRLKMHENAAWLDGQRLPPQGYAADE

Row | Compound | pKi
1 | O=C1NS(=O)(=O)Nc2nc[nH]c21 [1H,3H,4H,7H-2,1,3,5,7-imidazo[4,5-c][1,2,6]thiadiazine-2,2,4-trione] | < 4.00
2 | Nc1nc2c(c(=O)[nH]1)C[C@@H](CCc1ccc(C(=O)N[C@@H](CCC(=O)O)C(=O)O)cc1)CN2 [5,10-dideazatetrahydrofolic acid] | 7.00
3 | O=C1NS(=O)(=O)Nc2c1ncn2[C@@H]1O[C@H](CO)[C@@H](O)[C@H]1O [7-[(2R,3R,4S,5R)-3,4-dihydroxy-5-(hydroxymethyl)oxolan-2-yl]-1H,3H,4H,7H-2,1,3,5,7-imidazo[4,5-c][1,2,6]thiadiazine-2,2,4-trione] | < 4.00
4 | O=C1NS(=O)(=O)Nc2c1ncn2[C@@H]1O[C@H](COP(=O)(O)O)[C@@H](O)[C@H]1O [{[(2R,3S,4R,5R)-3,4-dihydroxy-5-(2,2,4-trioxo-1H,3H,4H,7H-2,1,3,5,7-imidazo[4,5-c][1,2,6]thiadiazin-7-yl)oxolan-2-yl]methoxy}phosphonic acid] | < 4.00
